The record followed here is patent US20160106102A1, “KNOWN AND NEW HETEROCYCLIC COMPOUNDS AS PEST CONTROL AGENTS” (BAYER CROPSCIENCE AKTIENGESELLSCHAFT, priority 2013, published 2016).

Series [1] relates to Myzus persicae. In words: Myzus persicae - spray test. Type of series: in vivo. The note with it: application rate of 500 g/ha; after 6 days; sprayed Chinese cabbage leaf discs infested by all stages; 100% = all aphids killed. In outline:
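Chinese cabbage leaf discs infested with all stages of green peach aphid sprayed with compound in acetone/DMF formulation with alkylaryl polyglycol ether emulsifier, diluted in emulsifier-containing water. Efficacy (% aphids killed) assessed after 6 days.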

The subject of series [2] is Phaedon cochleariae. Kind of series: Phaedon cochleariae - spray test (PHAECO). Type of series: in vivo. The note with it: application rate of 500 g/ha; after 7 days; larvae of the mustard beetle on sprayed Chinese cabbage leaf discs; 100% = all larvae killed. The protocol:
Phaedon cochleariae—Spray Test (PHAECO)
(§1) Solvent: 78.0 parts by weight of acetone • • 1.5 parts by weight of dimethylformamide
(§2) Emulsifier: alkylaryl polyglycol ether
(§3) To produce an appropriate active ingredient formulation, 1 part by weight of active ingredient is dissolved using the specified parts by weight of solvent and made up with water containing an emulsifier concentration of 1000 ppm until the desired concentration is attained. To produce further test concentrations, the preparation is diluted with emulsifier-containing water.
Discs of Chinese cabbage leaves (Brassica pekinensis) are sprayed with an active ingredient formulation of the desired concentration and, after drying, populated with larvae of the mustard beetle (Phaedon cochleariae).
After 7 days, the efficacy in % is determined. 100% means that all the beetle larvae have been killed; 0% means that no beetle larvae have been killed.

Series [3] deals with Spodoptera frugiperda. Kind of series: Spodoptera frugiperda - spray test (SPODFR). It is filed as in vivo. Particulars: application rate of 500 g/ha; after 7 days; armyworm caterpillars on sprayed maize leaf discs; 100% = all caterpillars killed. The protocol: Spodoptera frugiperda—Spray Test (SPODFR)
as §1, §2, §3
Leaf discs of maize (Zea mays) are sprayed with an active ingredient formulation of the desired concentration and, after drying, populated with caterpillars of the armyworm (Spodopterafrugiperda).
After 7 days, the efficacy in % is determined. 100% means that all the caterpillars have been killed; 0% means that no caterpillars have been killed.

Series [4] relates to Myzus persicae. Kind of series: Myzus persicae - sachet test. It is filed as in vivo. Particulars: 100% = all animals killed. In outline: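 Green peach aphids feed through a sealed sachet on nutrient medium containing the water-diluted formulation (solvents: 2% N-methylpyrrolidone, 2% diacetone alcohol). Percent mortality read after the chosen time; 100% means all animals killed.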

A short description of series [5]: log P determination by LC-MS in the acidic range. Type of series: physicochemical. Particulars: LC-MS in the acidic range. From the text: The LC-MS determination in the acidic range is effected at pH 2.7 using 0.1% aqueous formic acid and acetonitrile (contains 0.1% formic acid) as eluents, linear gradient from 10% acetonitrile to 95% acetonitrile. Alternatively, the determination is effected in the acidic range at pH 2.3 using 0.1% aqueous phosphoric acid and acetonitrile as eluents; linear gradient from 10% acetonitrile to 95% acetonitrile.

Series [6] deals with Tetranychus urticae. Kind of series: Tetranychus urticae - spray test, OP-resistant (TETRUR). Type of series: in vivo. Particulars: application rate of 500 g/ha; after 6 days; bean leaf discs infested by all stages; 100% = all spider mites killed. The method, then: Tetranychus urticae—spray test, OP-resistant (TETRUR)
as §1, §2, §3
Discs of bean leaves (Phaseolus vulgaris) infested by all stages of the greenhouse red spider mite (Tetranychus urticae) are sprayed with an active ingredient formulation of the desired concentration.
After 6 days, the efficacy in % is determined. 100% means that all the spider mites have been killed; 0% means that no spider mites have been killed.

[7] abbreviates: application rate of 6 ppm in nutrient medium.
Setting [8] is: application rate of 30 ppm in nutrient medium.

`Cc1cc(N(C(=O)c2cccnc2)C(=O)c2cccc(Cl)c2)nn1C(=O)c1cccc(Cl)c1` [Compound I-1-22]: the figures for the efficacy in % in series [1], in series [2] and in series [3] were 100%, 83% and 83%, respectively. Besides, the “efficacy (kill in %)” value in series [4] (setting [7]) and in series [4] (setting [8]) was 100% each time. Also, the “log P (acid)” value in series [5] is 3.98.

Take `Cc1cc(NC(=O)c2cccnc2)nn1C(=O)C(C)C` [Compound I-1-130]: the efficacy in % in series [1] was found to be 90%; in series [2], 100%; in series [3] it was 100%. In addition, the “efficacy (kill in %)” value in series [4] (setting [7]) and in series [4] (setting [8]) was 100% throughout. Moreover, the “log P (acid)” value in series [5] is given as 1.95.

`CCCC(=O)n1nc(NC(=O)c2cccnc2)cc1C` [Compound I-1-131]: the efficacy in % in series [1] amounted to 90%; in series [2], 100%; in series [3] it was 100%; in series [6], 90%. In addition, the “efficacy (kill in %)” value in series [4] (setting [7]) and in series [4] (setting [8]) was 100% each time. Also, the “log P (acid)” value in series [5] amounted to 1.94.

Take `CCC(C)n1nc(NC(=O)c2cccnc2)cc1C` (stereo not shown) [Compound I-1-205]: the results for the efficacy in % in series [1] and in series [6] were 100% and 90%, respectively. Besides, the “efficacy (kill in %)” value in series [4] (setting [8]) amounted to 100%. Besides, in series [5], the “log P (acid)” value was 1.59.

As for `CCC(CC)n1nc(NC(=O)c2cccnc2)cc1C` [Compound I-1-210], the efficacy in % in series [6] came to 90%. Besides, the “efficacy (kill in %)” value in series [4] (setting [8]) is 80%. Also, in series [5], the “log P (acid)” value was determined as 1.92.

With `Cc1nc(Cn2nc(NC(=O)c3cccnc3)cc2C)no1` [Compound I-1-282], the efficacy in % in series [1] and in series [6] was 90% in each case. In addition, the “efficacy (kill in %)” value in series [4] (setting [7]) and in series [4] (setting [8]) was 100% each time. Besides, in series [5], the “log P (acid)” value is on record as 0.9.
